Reference: patent publication US12533345B2 (AARHUS UNIVERSITET, priority 2015, dated 2026)
Like-named read-outs stand apart in the source and are kept apart here.

Tests used:
rat EDL muscles = assay: LDH release from stimulated 9AC-treated (myotonic) rat EDL muscles; assay type: cell-based; conditions: stimulation for 60 min, LDH followed 3 hrs after contraction
Method: In all cases a sample was taken before stimulation (Pre), the muscles were then stimulated to contraction for 2 s at 30 Hz by 0.2 ms pulses every 3 minutes for 60 min (20 stimulations) or left resting. Open symbols are from muscles incubated with 9AC±LTG or RUF. Solid triangles are from muscles incubated with 9AC without stimulation. Immediately after cessation of stimulation, a new sample was taken from solution incubating the muscles. For the next 180 minutes a sample was taken from the incubating solution every 30 minutes, as designated by the time after stimulation. The period from cessation of stimulation to 180 min after stimulation is termed recovery.
EDL muscles from rats were isolated and placed in small chambers with oxygenated as previously described in detail (Gissel H1, Clausen T. Excitation-induced Ca(2+) influx in rat soleus and EDL muscle: mechanisms and effects on cellular integrity. Am J Physiol Regul Integr Comp Physiol. 2000 279(3): R917-24).
To explore for an effect of myotonia on muscle fibre integrity and the effect of the drugs hereupon, the release of the intracellular protein from the muscle, lactate dehydrogenase (LDH), to the incubation solution was determined in contracting EDL muscles.

[1] = test system: non-myotonic rat soleus muscles; assay: Contractile force in non-myotonic isolated rat soleus muscles; assay type: cell-based; conditions: three hrs incubation, 5 and 60 Hz stimulation, similar to time-matched controls
Method: To first test for effects of the three drugs (RUF, LCM and LTG) on force in non-myotonic rat soleus muscles, muscles were exposed to 2 s stimulations at both 5 Hz and 60 Hz every 10 mins during three hrs of drug incubation. The drug concentrations were the highest free concentrations that are tolerated clinically: For both 5 and 60 Hz stimulation, incubation with 5 μM LCM reduced force by ˜6-8% in two muscles. With 25 μM LTG force was reduced by ˜6% in three muscles, and with 100 μM RUF force was reduced by 4% in three muscles. In all cases, these reductions in force during the three hours were similar to reductions observed in time-matched control muscles.

[2] = test system: isolated human abdominal rectus muscle; assay: Myotonia (tail AUC) in 9AC-treated bundles of isolated human abdominal rectus muscle; assay type: cell-based; conditions: for EC50: Homo sapiens, read-out: EC50 (concentration required to reduce AUC to 50% of maximal value); for Slope of fit: human muscle bundles, 3-parameter sigmoidal fit, mean ± SEM; for Ability to abolish myotonia: isolated human muscles, 9AC, increasing concentrations
Method: As in rat muscles myotonia was induced with 9-AC and quantified from the AUC as determined from the cessation of stimulation to force returned to baseline. […] C and D show similar data for RUF (n=4) and LTG (n=6), respectively.
The use of human muscles was approved by the Danish Ethics Committee, Region Midtjylland, Comité I (reference number Jan. 10, 1972-20-13) and was performed in accordance with the Helsinki Declaration. Informed consent was obtained from all subjects before inclusion. Muscles were obtained from 4 male subjects admitted in relation to planned aortic aneurysm surgery at Skejby hospital. […] After isolation the tissue was transported to the laboratory at the University (<30 min) in a HEPES based solution (pH 7.4) at ˜5° C. Upon arrival to the laboratory, the tissue was incubated in often-replaced fresh Krebs-Ringer bicarbonate solution equilibrated with 5% CO2 in oxygen at 30° C. for 10 to 20 min, before further dissection into smaller bundles of approx. 4 cm length weighing 515±61 mg. For contraction experiments, bundles were tied at both ends with polyester string, to enable mounting of the preparations in the setups for measurement of contractile force.
The experiments in FIG. 1 were repeated for small muscle bundles of human abdominal muscle. 9AC was used to induce myotonia and, subsequently, LCM, RUF or LTG were added at increasing concentrations. In all cases, myotonia was reduced with increased concentration of drug. […] Similar traces were obtained with LCM-and LTG-treated bundles of human muscle. FIG. 2B-D show data and sigmoidal fits from individual bundles with additions of LCM (n=5), RUF (n=5) and LTG (n=6), respectively.

[3] = test system: CIC-1 inhibited rat soleus muscles; assay: Myotonia (tail AUC of force response) in 9AC-treated isolated rat soleus muscle; conditions: for EC50: Rattus norvegicus; for Reduction of myotonia within clinically observed concentration ranges: isolated muscle, species not stated at this place (study on rat and human); for Slope of fit / Ability to abolish myotonia: rat soleus; for Slope of fit: 3-parameter sigmoidal fit of AUC vs concentration; for Ability to abolish myotonia: 9AC, increasing concentrations
[4] = read-out: EC50 (concentration required to reduce AUC to 50% of maximal value), rat soleus, 100 μM 9AC, 15 Hz 2 s stimulation, 3-parameter sigmoidal fit, mean ± SEM, Table 1 prints no unit, b139 gives concentrations in μM
[5] = 10 min, read-out: EC50 (reduction of AUC), rat soleus, 100 μM 9AC, 15 Hz 2 s every 10 min, two muscles per compound

## NC(=O)c1cn(Cc2c(F)cccc2F)nn1 [Rufinamide, 1-(2,6-Difluorobenzyl)-1H-1,2,3-triazole-4-carboxamide]
Rat EDL muscles
  Effect on myotonia-induced LDH release (muscle damage): completely blocked
[1]; 100 μM RUF
  Reduction of force: 4%
[2]; 80 μM RUF, single human muscle bundle, 100 μM 9AC (FIG. 2A)
  Effect on myotonia: almost full abolishment of myotonia
[2]
  EC50: 22.5 ± 1.73 µM
  Slope of fit: −0.33 ± 0.035
  Ability to abolish myotonia: completely abolish myotonia
[3]; 20 μM RUF, 9AC treated muscle (FIG. 1 B3)
  Reduction of AUC (myotonia): more than 50%
[3]; 100 μM RUF (FIG. 1 B4)
  Reduction of AUC (myotonia): ~98%
[3]; [4]
  EC50: 18.1 ± 1.84 µM
[3]; read-out: RUF concentration for AUC to be reduced by 50%, in presence of 0.5 μM LTG (n=6)
  EC50: 7 µM
[3]; read-out: RUF concentration for AUC to be reduced by 50%, pre-incubation with 1 μM LTG (n=4)
  EC50: 3.1 µM
[3]; isobole plot, 0.5 μM LTG
  RUF concentration less than expected if RUF and LTG acted purely additively: 5 µM
[3]; isobole plot, 1 μM LTG
  RUF concentration less than predicted by the assumption of additivity: 3 µM
[3]
  Reduction of myotonia within clinically observed concentration ranges: 92±2%
  Ability to abolish myotonia: completely abolish myotonia
[3]; mean ± SEM
  Slope of fit: −0.29 ± 0.02
[3]; with 0.5 μM or 1 μM LTG, both cases
  RUF concentration for half effect as % of concentration expected for additive action: around 50%

## NC(=O)c1nnn(Cc2ccccc2)c1N [Compound 1, 5-amino-1-benzyl-1H-1,2,3-triazole-4-carboxamide]
[3]; [5]
  EC50: 24.7 µM
[3]
  Ability to abolish myotonia: completely abolish myotonia

## Nc1nnc(-c2cccc(Cl)c2Cl)c(N)n1 [Lamotrigine, 6-(2,3-dichlorophenyl)-1,2,4-triazine-3,5-diamine]
Rat EDL muscles
  Effect on myotonia-induced LDH release (muscle damage): Very similar effects
[1]; 25 μM LTG
  Reduction of force: ~6%
[2]
  EC50: 5.54 ± 0.88 µM
  Slope of fit: −0.30 ± 0.068
  Ability to abolish myotonia: completely abolish myotonia
[3]; 0.5 μM LTG (FIG. 3 A3)
  AUC as % of the full myotonic state: 90%
[3]; 2 μM LTG (FIG. 1 C3)
  Reduction of AUC (myotonia): ~46%
[3]; 16 μM LTG (FIG. 1 C4)
  Reduction of AUC (myotonia): ~98%
[3]; [4]
  EC50: 1.52 ± 0.13 µM
[3]
  Reduction of myotonia within clinically observed concentration ranges: 92±2%
  Ability to abolish myotonia: completely abolish myotonia
[3]; mean ± SEM
  Slope of fit: −0.39 ± 0.042

## Cc1c(C(N)=O)nnn1Cc1ccccc1 [Compound 2, 1-benzyl-5-methyl-1H-1,2,3-triazole-4-carboxamide]
[3]; [5]
  EC50: 19.1 µM
[3]
  Ability to abolish myotonia: completely abolish myotonia
